Source: patent US8609862B2, “Use of an adrenal hormone-modifying agent” (Novartis AG, priority 2010, dated 2013)

How the values were obtained:
adrenal steroidogenesis = assay: Pilot single-blind forced-titration study of hormonal effects in patients with primary hyperaldosteronism; assay type: in vivo, human; conditions: oral 0.5 mg twice daily 2 weeks then 1.0 mg twice daily 2 weeks
Experimental: A pilot, single-blind, forced-titration study was performed to assess the hormonal effects of a compound of formula (I), 4-[(5R)-6,7-dihydro-5H-pyrrolo[1,2-c]imidazol-5-yl]-3-fluororbenzonitrile dihydrogen phosphate, in patients with diagnosed primary hyperaldosteronism. The clinical study was designed, implemented and reported in accordance with the ICH harmonized tripartite guidelines for good clinical practice with applicable local regulations. Each patient participated in a screening/washout period, a 2-week placebo run-in period, a 4-week treatment period, and a 1-week placebo wash-out. The treatment period consisted of the oral administration of compound of formula (I) twice daily at a dose of 0.5 mg for two weeks followed by a dose increase to 1.0 mg twice daily for another 2 weeks. Blood samples were taken at baseline, day 1 and 2, day 8, day 15, day 22, day 29 and 30 (all at predose i.e., 12 h after the last dose), and at the final study day 36. Each sample was assessed for aldosterone and immunoreactive active renin, 11-deoxycorticosterone, cortisol, 11-deoxycortisol and adrenocorticotropin (ACTH) after subjects were at rest for at least 60 minutes to avoid any postural or stress-induced value changes. Plasma aldosterone was measured using a commercially available radioimmunoassay kit (DPC, France). Plasma Active Renin was measured using the two monoclonal antibodies 3E8 and 125I-4G1 in a commercially available immunoradiometric kit (CisBio, France). Plasma 11-deoxycorticosterone, cortisol and 11-deoxycortisol were measured using a standardized LC-MS/MS method. Plasma ACTH was measured using a commercially available immunoradiometric kit (CisBio, France).
Statistical analysis of the pharmacodynamic biomarker were summarized using descriptive statistics as well as graphical and/or regression methods.

Rat CYP11B2 = molecular target: T1, Rat CYP11B2 (Rattus norvegicus, UniProt P30099); assay: In vitro rat CYP11B2 assay; assay type: biochemical; conditions: V79-4 cell homogenate, 11-deoxycorticosterone to aldosterone, SPA
T1 construct: made in house; host or cells: V79-4 cell line #305 (stably selected with geneticin and hygromycin); sonicated homogenate, 500 x g supernatant
T1 sequence (P30099 35-510): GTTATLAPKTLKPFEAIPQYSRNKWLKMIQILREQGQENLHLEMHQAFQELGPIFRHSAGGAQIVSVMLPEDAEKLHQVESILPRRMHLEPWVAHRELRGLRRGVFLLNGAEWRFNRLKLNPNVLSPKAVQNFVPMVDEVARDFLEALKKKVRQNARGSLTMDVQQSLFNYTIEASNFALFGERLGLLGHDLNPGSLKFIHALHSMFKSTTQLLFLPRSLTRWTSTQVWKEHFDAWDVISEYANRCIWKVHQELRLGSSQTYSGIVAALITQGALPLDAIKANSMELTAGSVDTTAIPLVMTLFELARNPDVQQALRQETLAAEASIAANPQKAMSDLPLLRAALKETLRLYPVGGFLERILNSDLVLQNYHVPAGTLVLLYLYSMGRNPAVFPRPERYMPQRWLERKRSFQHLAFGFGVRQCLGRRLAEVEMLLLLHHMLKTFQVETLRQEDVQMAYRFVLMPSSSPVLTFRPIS
Experimental: (§1) Following 2 days of growth, cells are washed once with PBS, scraped and collected in PBS, and centrifuged at 1,300 rpm for 6 min. […] The sonication procedure is repeated 3 more times, with a 5 min incubation on ice between sonications. The sonicated material is then spun at 500×g for 4 min to remove unbroken cells. The supernatant is brought to a final glycerol concentration of 5%, flash-frozen in liquid nitrogen, and stored at −80° C.
The CYP11B2 assay is performed in 96-well U-bottom non-tissue-culture-treated plates. […] Plates are then centrifuged at 2,400 rpm for 6 min, and 100 μl of supernatant is removed for measurement of aldosterone content by scintillation proximity assay (SPA).
(§2) Measurement of aldosterone is performed using a 96-well plate format. […] Anti-mouse PVT SPA beads (50 μl) are then added to each well and incubated for 4 hr at room temperature prior to counting in a Microbeta plate counter. The amount of aldosterone in each sample is calculated by comparing with a standard curve generated using known quantities of the hormone.
Full concentration-response curves of an inhibitor are performed at least 3 times. The IC50 values are derived using a non-linear least squares curve-fitting program from DBS XLfit.

CYP11B2 = molecular target: T2, CYP11B2 (Rattus norvegicus, UniProt P30099); assay: In vivo assay: plasma aldosterone concentration (PAC) in ACTH-infused conscious rats; conditions: 10 mg/kg p.o., ACTH infusion
T2 construct: from tissue; host or cells: whole animal: conscious male Sprague-Dawley rats under ACTH infusion (the adrenal gland as site of the enzyme comes from the background, b5)
T2 sequence (P30099 35-510): T1 sequence (P30099 35-510)
Experimental: (§3) The in vivo effects of compounds on plasma aldosterone concentration (PAC) and plasma glucocorticoid (corticosterone) concentration (PCC) were evaluated in conscious rats.
(§4) Male Sprague-Dawley rats (˜400-600 g body weight) were surgically instrumented with a femoral arterial and venous catheter. The catheters were exteriorized from the lower back through a stainless steel spring and swivel system that enabled the rats to move freely at all times. Rats were allowed at least one week to recover from the surgery before initiating the experiments.
(§5) On the morning of the experiment, a pretreatment blood sample was collected on heparin from the arterial catheter. The blood samples were spun in a refrigerated centrifuge to generate plasma. The plasma was stored frozen at −70° C. until the later measurement of PAC and PCC (by radioimmunoassay). Adrenocorticotropic hormone (ACTH(1-24), referred to herein as ACTH) was then administered as an intravenous (i.v.) bolus (100 ng/kg) followed by a continuous i.v. infusion (30 ng/kg/min) for 9 hours. After one hour of infusion, a baseline (time 0) blood sample was withdrawn from the arterial catheter and processed and stored as described above. The rats were then dosed (typically 0.01 to 100 mg/kg) with the test compound p.o. by oral gavage or parenterally via the arterial catheter (i.a.). Compounds were formulated in an appropriate vehicle (e.g., water (p.o.) or saline (i.a.)) at a physiologically compatible volume (typically 1-2 ml/kg). Additional blood samples were withdrawn at 0.083 (i.a. only), 0.25, 0.5, 1, 2, 3, 4, 5, 6, 7, 8, and 24 hours after dosing with compound and processed and stored as above for later determination of PAC, PCC, and plasma compound concentration (by LC/MS/MS). Oral bioavailability and traditional pharmacokinetic (PK) parameters were estimated from the plasma compound concentrations.
(§6) Based on the plasma compound concentration at each dose, the PK/PD (pharmacodynamic) profiles (reduction of PAC and PCC) of each compound were determined.

CYP11B1 = molecular target: T3, CYP11B1 (Rattus norvegicus, UniProt P15393); assay: In vivo CYP11B1 assay: plasma corticosterone concentration (PCC) in ACTH-infused conscious rats; conditions: 10 mg/kg p.o., ACTH infusion
T3 construct: from tissue; host or cells: whole animal: conscious male Sprague-Dawley rats under ACTH infusion (the adrenal gland as site of the enzyme comes from the background, b5)
T3 sequence (P15393 25-499): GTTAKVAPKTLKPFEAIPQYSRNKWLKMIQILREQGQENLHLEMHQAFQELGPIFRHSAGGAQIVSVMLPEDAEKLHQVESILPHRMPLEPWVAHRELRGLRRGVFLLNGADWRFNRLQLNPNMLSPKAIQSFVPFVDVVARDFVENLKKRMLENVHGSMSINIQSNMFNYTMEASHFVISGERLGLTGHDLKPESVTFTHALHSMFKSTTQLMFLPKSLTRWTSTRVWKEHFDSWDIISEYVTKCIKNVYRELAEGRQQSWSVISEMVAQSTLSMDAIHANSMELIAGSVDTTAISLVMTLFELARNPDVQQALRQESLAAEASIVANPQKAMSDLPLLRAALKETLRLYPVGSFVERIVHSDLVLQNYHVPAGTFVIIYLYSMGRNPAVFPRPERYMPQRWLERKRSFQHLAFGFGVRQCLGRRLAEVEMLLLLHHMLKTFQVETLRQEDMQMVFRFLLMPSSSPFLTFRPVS
Experimental: as §3, §4, §5, §6

Rat CYP11B1 = molecular target: T4, Rat CYP11B1 (Rattus norvegicus, UniProt P15393); assay: In vitro rat CYP11B1 assay; assay type: biochemical; conditions: V79-4 cell homogenate, 11-deoxycorticosterone to corticosterone, SPA
T4 construct: made in house; host or cells: V79-4 cell line #259 (stably selected with geneticin and hygromycin); sonicated homogenate, 500 x g supernatant
T4 sequence (P15393 25-499): T3 sequence (P15393 25-499)
Description: Complete EDTA-free protease inhibitor tablets were obtained from Roche Applied Science (Indianapolis, Ind.). Dulbecco's modified Eagle medium (DMEM), antibiotic, geneticin, hygromycin, and fetal bovine serum (FBS) were products of Invitrogen (Carlsbad, Calif.). NADPH Regeneration Solution A and Solution B were purchased from BD Biosciences Clontech (Palo Alto, Calif.). Anti-sheep PVT SPA beads and [1,2,6,7-^3H(N)]corticosterone were acquired from Amersham (Piscataway, N.J.) and PerkinElmer (Boston, Mass.), respectively.
as §1, with “For enzyme preparation, #259 cells were seeded in 150 mm dishes in double-selection medium. Following” for “Following”, “were” for “are”, “was” for “is”, “rest” for “incubation”
The CYP11B1 assays were performed in 96-well U-bottom non-tissue-culture-treated plates. […] Plates were then centrifuged at 2,400 rpm for 6 min, and 50 μl of supernatant was removed for measurement of corticosterone content by scintillation proximity assay (SPA).
as §2, with “corticosterone was” for “aldosterone is”, “Anti-sheep” for “Anti-mouse”, “were” for “are”, “overnight” for “for 4 hr”, “corticosterone” for “aldosterone”, “was” for “is”
Full concentration-response curves of an inhibitor were performed at least 3 times. The IC50 values were derived using a non-linear least squares curve-fitting program from IDBS XLfit.

Compound: N#Cc1ccc([C@H]2CCc3cncn32)c(F)c1.O=P(O)(O)O [4-[(5R)-6,7-dihydro-5H-pyrrolo[1,2-c]imidazol-5-yl]-3-fluororbenzonitrile dihydrogen phosphate]
- plasma 11-deoxycorticosterone (P11DOCS) (adrenal steroidogenesis): unexpectedly high build-up
- plasma 11-deoxycortisol (P11DOC) (adrenal steroidogenesis): accumulation
- plasma ACTH levels (adrenal steroidogenesis): increased ACTH levels
- plasma active renin level (adrenal steroidogenesis): increased active renin level
- plasma aldosterone (adrenal steroidogenesis): potent aldosterone suppression
- plasma cortisol levels (adrenal steroidogenesis): decreasing cortisol levels

Compound: N#Cc1ccc([C@H]2CCc3cncn32)c(F)c1 (single isomer, unassigned) [4-(6,7-Dihydro-5H-pyrrolo[1,2-c]imidazol-5-yl)-3-fluorobenzonitrile enantiomer B, 4-(6,7-Dihydro-5H-pyrrolo[1,2-c]imidazol-5-yl)-3-fluorobenzonitrile]
- IC50 (Rat CYP11B2): 110 nM
- % Reduction from baseline PAC t = 1 h (CYP11B2; 1 h after dosing): 65%
- % Reduction from baseline PAC 8 h (CYP11B2; 8 h after dosing): 72%
- % Reduction from baseline PCC t = 1 h (CYP11B1; 1 h after dosing): 24%
- % Reduction from baseline PCC 8 h (CYP11B1; 8 h after dosing): 30%
- IC50 (Rat CYP11B1): 495 nM
